Measurements as given in ChEMBL document CHEMBL1201862, “PubChem BioAssay data set” (2004).
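Briefly, cells in 96-well plates were exposed to five compound concentrations for 48 h, and endpoints were estimated by linear interpolation. Here, GI50 denotes the concentration required for 50% inhibition of growth.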 Activity calls are given as the source filed them. Cut-off read from the data, not from the text of the source: active = GI50 up to about 1.1 µM and inactive = higher.

Key:
Experiment in all cases: DTP human tumour cell line panel, 48 h
[1] = tested on: CCRF-CEM
[2] = tested on: SF-295
[3] = tested on: RPMI-8226
[4] = tested on: SK-MEL-5
[5] = tested on: SK-MEL-28
[6] = tested on: UACC-62
[7] = tested on: SNB-19
[8] = tested on: SK-OV-3
[9] = tested on: U-251
[10] = tested on: HCC 2998
[11] = tested on: A549
[12] = tested on: NCI/ADR-RES
[13] = tested on: COLO 205
[14] = tested on: OVCAR-8
[15] = tested on: 786-0
[16] = tested on: IGROV-1
[17] = tested on: MOLT-4
[18] = tested on: MCF7
[19] = tested on: M14
[20] = tested on: SR

Row | Structure (SMILES) | GI50 [1] | GI50 [2] | GI50 [3] | GI50 [4] | GI50 [5] | GI50 [6] | GI50 [7] | GI50 [8] | GI50 [9] | GI50 [10] | GI50 [11] | GI50 [12] | GI50 [13] | GI50 [14] | GI50 [15] | GI50 [16] | GI50 [17] | GI50 [18] | GI50 [19] | GI50 [20]
1 | COc1cccc(/C=N/[N+](C)(C)C)c1O | > 10 µM (inactive) | > 10 µM (inactive) | > 10 µM (inactive) | > 10 µM (inactive) | > 10 µM (inactive) | > 10 µM (inactive) | > 10 µM (inactive) | > 10 µM (inactive) | > 10 µM (inactive) | > 10 µM (inactive) | > 10 µM (inactive) | > 10 µM (inactive) | > 10 µM (inactive) | > 10 µM (inactive) | > 10 µM (inactive) | > 10 µM (inactive) | > 10 µM (inactive) | > 10 µM (inactive) | > 10 µM (inactive) | –
2 | Nc1nc(N)c2ncn(Cc3ccccc3CCl)c2n1 | 88.1 µM (inactive) | > 100 µM (inactive) | > 100 µM (inactive) | 51.1 µM (inactive) | > 100 µM (inactive) | > 100 µM (inactive) | > 100 µM (inactive) | > 100 µM (inactive) | > 100 µM (inactive) | – | > 100 µM (inactive) | > 100 µM (inactive) | > 100 µM (inactive) | > 100 µM (inactive) | > 100 µM (inactive) | > 100 µM (inactive) | > 100 µM (inactive) | > 100 µM (inactive) | > 100 µM (inactive) | 8.51 µM (inactive)
3 | CCN(CC)C(=S)N/N=C/c1ccccn1 | < 0.01 µM (active) | < 0.0483 µM (active) | < 0.01 µM (active) | < 0.0174 µM (active) | 0.187 µM (active) | < 0.0328 µM (active) | < 0.0118 µM (active) | < 0.0192 µM (active) | < 0.01 µM (active) | 0.149 µM (active) | 0.0239 µM (active) | < 0.01 µM (active) | < 0.01 µM (active) | < 0.01 µM (active) | < 0.01 µM (active) | < 0.01 µM (active) | < 0.01 µM (active) | < 0.01 µM (active) | 0.0324 µM (active) | –
4 | O/N=C1\C/C(=N\O)c2c(Br)sc(Br)c21 | 11.1 µM (inactive) | > 100 µM (inactive) | – | > 100 µM (inactive) | 24.7 µM (inactive) | 91.2 µM (inactive) | – | 91.8 µM (inactive) | 43.2 µM (inactive) | 23.7 µM (inactive) | 26.2 µM (inactive) | 30.2 µM (inactive) | 70.8 µM (inactive) | 19.2 µM (inactive) | 36 µM (inactive) | 30.4 µM (inactive) | 29.2 µM (inactive) | 38.3 µM (inactive) | 45.6 µM (inactive) | 8.99 µM (inactive)
